Results on eight compounds are retold here after ChEMBL document CHEMBL1130561, “Batrachotoxin binding site antagonists” (Bioorg Med Chem Lett, 1997).

The target in assay [1] is Sodium channel alpha subunits; brain (Types I, II, III) (Homo sapiens, UniProt P35498+Q99250+Q9NY46). Briefly: Antagonism of batrachotoxin-mediated sodium ion uptake into cultured neuroblastoma cells. The assay is classed as functional.
The target in assay [2] is Sodium channel alpha subunits; brain (Types I, II, III) (Rattus norvegicus, UniProt P04775+P04774+P08104). The assay can be described thus: Inhibition of [3H]batrachotoxin binding to rat brain neuronal membranes. The assay is classed as cell membranes, Membrane.

One may read the IC50 as the concentration needed to halve the response being measured. A low value points to inhibition by little substance. With `CC12CC[C@]3(OCc4cccc(Br)c4)CC1CCC[C@@]2(CO)O3`, the IC50 in assay [1] stood at 80 µM; in assay [2], 10 µM. Consider `COC[C@H](CCOC(=O)c1ccccc1)C[C@@H](O)[C@@]12CCCC3C[C@@](OC)(CCC31C)O2`, for which the IC50 is 5 µM in assay [1] and 10 µM in assay [2]. On the same counts, the results for `CO[C@]12CCC3(C)C(CCC[C@@]3([C@H](O)C[C@@H](CCOC(=O)c3ccccc3)CN(C)C)O1)C2` are 0.5 µM and 3.6 µM.

For the compound `CO[C@]12CCC3(C)C(CCC[C@@]3(CO)O1)C2`, the figures for the IC50 in assay [1] and in assay [2] were 1000 µM and 2000 µM, respectively. On the same counts, the results for `CN(C)CCC[C@@H](O)[C@@]12CCCC3C[C@@](OCc4ccccc4)(CCC31C)O2` are 4 µM and 4.5 µM. On to `CO[C@]12CCC3(C)C(CCC[C@@]3([C@H](O)CCCN(C)C)O1)C2`, for which the half-maximal inhibitory concentration (IC50) worked out at 200 µM in assay [1] and 130 µM in assay [2].

In assay [2], `CCCCNc1ccc(C(=O)OCCN(C)C)cc1` [TETRACAINE] returned an IC50 of 6 µM.

`COc1ccc(C(=O)O[C@H]2CC[C@@]3(C)[C@@H]4CC[C@H]5[C@]6(O)C[C@H](O)[C@@]7(O)[C@@H](CN8C[C@@H](C)CC[C@H]8[C@@]7(C)O)[C@]6(O)C[C@@]53O[C@]24O)cc1OC` [VERATRIDINE] returned an IC50 in assay [2] of 22 µM.
